Target: T1, olfactory receptor co-receptor (Orco) (Anopheles gambiae, UniProt Q7QCC7)
T1 construct: codon-optimized Orco cDNA in pPICZA (C-terminal c-myc tag detected), expressed in Pichia pastoris GS115
T1 sequence (Q7QCC7 1-478): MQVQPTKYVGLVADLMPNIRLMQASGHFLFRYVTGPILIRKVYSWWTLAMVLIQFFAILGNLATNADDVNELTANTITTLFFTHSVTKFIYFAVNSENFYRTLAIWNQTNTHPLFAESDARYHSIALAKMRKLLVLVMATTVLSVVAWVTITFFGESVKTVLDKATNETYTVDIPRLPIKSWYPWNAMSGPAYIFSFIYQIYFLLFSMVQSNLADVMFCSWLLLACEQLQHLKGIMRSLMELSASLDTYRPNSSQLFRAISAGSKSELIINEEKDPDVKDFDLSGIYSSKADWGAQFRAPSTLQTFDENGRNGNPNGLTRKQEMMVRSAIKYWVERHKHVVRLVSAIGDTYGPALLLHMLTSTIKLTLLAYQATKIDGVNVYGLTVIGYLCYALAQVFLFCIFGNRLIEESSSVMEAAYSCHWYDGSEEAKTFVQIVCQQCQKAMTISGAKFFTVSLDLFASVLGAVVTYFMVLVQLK
Assay: fluo-4-AM calcium influx assay in Pichia pastoris expressing Orco, compared with GS115 control cells ([…] extracellular Ca2+)
Type: cell-based

For `CCc1ccc(NC(=O)CSc2nnc(-c3cccnc3)n2CC)cc1` [VUAA1, 2‐(4‐ethyl‐5‐(pyridin‐3‐yl)‐4H‐1,2,4‐triazol‐3‐ylthio)‐N‐(4‐ethylphenyl)acetamide], the EC50 was 410 µM.

Reference: publication PMC7851572, “A Pichia biosensor for high‐throughput analyses of compounds that can influence mosquito behavior” (MicrobiologyOpen, 2020)
